Source: patent US20200017496A1 (priority 2017, published 2020)
“And” between values parts separate entries of the source, which are not always exact repeats. Equal values may be shown once. Read-outs that look alike come from different tables or passages of the source.

What was measured:
Type in all cases: cell-based
[1] = system: Klebsiella pneumoniae (KPN) isolates; experiment: MIC of compounds alone and combined with antibacterials, broth microdilution (CLSI); conditions: for MIC ATB in combination: AF1 @ 4 μg/mL
Method in brief: (§1)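 Log-phase bacteria at a final 5·10^5 CFU/mL in cation-adjusted Mueller-Hinton broth were incubated 16-20 h at 35° C in ambient air with compound alone or with an antibacterial. MIC was the lowest concentration preventing visible growth; combination MIC of the antibacterial was read at each compound concentration.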

[2] = system: Enterobacter aerogenes (EAE) isolates; experiment: as above
Method in brief: as §1

[3] = system: Citrobacter freundii (CFR) isolates; experiment: as above
Method in brief: as §1

[4] = system: Proteus mirabilis (PMI) isolates; experiment: microbe, parasite or virus in culture; conditions: for MIC ATB in combination: AF1 @ 4 μg/mL
Method in brief: as §1

CC1(C)S[C@@H]2[C@H](NC(=O)[C@H](N)c3ccc(O)cc3)C(=O)N2[C@H]1C(=O)O [AMX, Amoxicillin]
> 256 µg/mL: MIC ([1]; Klebsiella pneumoniae)
256 µg/mL: MIC ATB in combination ([1]; KPN 6299) | MIC ATB in combination ([1]; KPN 131119) | MIC ATB in combination ([1]; KPN 260252) | MIC ATB in combination ([1]; KPN ARA) | MIC ATB in combination ([1]; KPN BAA-1898) | MIC ATB in combination ([1]; KPN UFR65) | MIC ATB in combination ([1]; KPN UFR66) | MIC ATB in combination ([1]; KPN UFR67) | MIC ATB in combination ([1]; KPN UFR68) | MIC ATB in combination ([1]; KPN UFR221) | MIC ATB in combination ([3]; CFR UFR146, AF1 @ 4 μg/mL) | MIC ATB in combination ([3]; CFR UFR249, AF1 @ 4 μg/mL) | MIC ([4]; Proteus mirabilis, strain PMI UFR82 (CMY-2), ATB alone, read-out: MIC)
>512 µg/mL: MIC ATB in combination ([1]; KPN 140513) | MIC ATB in combination ([1]; KPN UFR76) | MIC ATB in combination ([1]; KPN UFR78) | MIC ATB in combination ([1]; KPN UFR79) | MIC ATB in combination ([1]; KPN UFR81) | MIC ATB in combination ([1]; KPN UFR222) | MIC ATB in combination ([3]; CFR UFR11, AF1 @ 4 μg/mL) | MIC ATB in combination ([3]; CFR UFR83, AF1 @ 4 μg/mL)
4 µg/mL: MIC ATB in combination ([1]; KPN 270077) | MIC ATB in combination ([1]; KPN 700603) | MIC ATB in combination ([3]; strain CFR UFR253, antibacterial combined with AF1 @ 4 μg/mL) | MIC ATB in combination ([3]; strain CFR UFR254, antibacterial combined with AF1 @ 4 μg/mL) | MIC ATB in combination ([4]; PMI UFR126) | MIC ATB in combination ([4]; PMI UFR127) | MIC ([4]; Proteus mirabilis, strain PMI UFR121 (TEM-1, TEM-52), CLA @ 4 μg/ml+ ATB, read-out: MIC) | MIC ([4]; Proteus mirabilis, strain PMI UFR125 (CTX-M-71), CLA @ 4 μg/ml+ ATB, read-out: MIC) | MIC ([4]; Proteus mirabilis, strain PMI UFR237 (VEB-6), CLA @ 4 μg/ml+ ATB, read-out: MIC)
128 µg/mL: MIC ATB in combination [2] | MIC ATB in combination [3] | MIC [4]
>256 µg/mL: MIC [2]
16 µg/mL: MIC ATB in combination ([1]; KPN 190270) | MIC ATB in combination ([1]; KPN 200047) | MIC ATB in combination ([1]; KPN LIB) | MIC ([2]; Klebsiella aerogenes, strain EAE UFR201 (TEM-1, SHV-12, CTX-M-15), CLA @ 4 μg/ml+ ATB, read-out: MIC) | MIC ATB in combination ([4]; PMI UFR237) | MIC ([4]; Proteus mirabilis, strain PMI UFR123 (CTX-M-1), CLA @ 4 μg/ml+ ATB, read-out: MIC) | MIC ([4]; Proteus mirabilis, strain PMI UFR126 (TEM-2, PER-1), CLA @ 4 μg/ml+ ATB, read-out: MIC)
>128 µg/mL and 128 µg/mL: MIC [1]
8 µg/mL: MIC ([1]; Klebsiella pneumoniae, strain KPN 700603 (SHV-18, OXA-2), CLA @ 4 μg/ml+ ATB, read-out: MIC) | MIC ATB in combination ([4]; PMI UFR82) | MIC ATB in combination ([4]; PMI UFR129) | MIC ATB in combination ([4]; PMI UFR130) | MIC ([4]; Proteus mirabilis, strain PMI UFR120 (TEM-1, SHV-11, CTX-M-14), CLA @ 4 μg/ml+ ATB, read-out: MIC) | MIC ([4]; Proteus mirabilis, strain PMI UFR122 (TEM-1, CTX-M-15), CLA @ 4 μg/ml+ ATB, read-out: MIC)
> 512 µg/mL: MIC ([1]; Klebsiella pneumoniae, BAA1898, strain KPN BAA-1898 (TEM-1, SHV-11, SHV-12, KPC-2), CLA @ 4 μg/ml+ ATB, read-out: MIC) | MIC ([1]; Klebsiella pneumoniae, strain KPN 6299 (TEM-1, SHV-11, OXA-163), CLA @ 4 μg/ml+ ATB, read-out: MIC) | MIC ([1]; Klebsiella pneumoniae, strain KPN 131119 (TEM-1, SHV-11, CTX-M-15, OXA-1, OXA-48), CLA @ 4 μg/ml+ ATB, read-out: MIC) | MIC ([1]; Klebsiella pneumoniae, strain KPN LIB (SHV-11, OXA-48), CLA @ 4 μg/ml+ ATB, read-out: MIC)
128 µg/mL and >256 µg/mL: MIC [3]
2 µg/mL: MIC ([4]; Proteus mirabilis, strain PMI UFR129 (TEM-1, VEB-6), CLA @ 4 μg/ml+ ATB, read-out: MIC)
<=0.25 μg/mL: MIC ATB in combination ([4]; PMI UFR120) | MIC ATB in combination ([4]; PMI UFR121) | MIC ATB in combination ([4]; PMI UFR122) | MIC ATB in combination ([4]; PMI UFR123) | MIC ATB in combination ([4]; PMI UFR124) | MIC ATB in combination ([4]; PMI UFR125)
> 1020 µg/mL: MIC ([1]; Klebsiella pneumoniae, BAA1898, strain KPN BAA-1898 (TEM-1, SHV-11, SHV-12, KPC-2), ATB alone, read-out: MIC) | MIC ([1]; Klebsiella pneumoniae, strain KPN 6299 (TEM-1, SHV-11, OXA-163), ATB alone, read-out: MIC) | MIC ([1]; Klebsiella pneumoniae, strain KPN UFR68 (TEM-1, SHV-11, CTX-M-15, KPC-3), ATB alone, read-out: MIC) | MIC ([2]; Klebsiella aerogenes, strain EAE 49469 (AmpC), ATB alone, read-out: MIC)
32 µg/mL: MIC ATB in combination ([1]; KPN 200327) | MIC ATB in combination ([1]; KPN 260376) | MIC ATB in combination ([1]; KPN UFR23) | MIC ATB in combination ([1]; KPN UFR216) | MIC ([1]; Klebsiella pneumoniae, strain KPN 200047 (TEM-1, SHV-32, CTX-M-15, OXA-1), CLA @ 4 μg/ml+ ATB, read-out: MIC) | MIC ([1]; Klebsiella pneumoniae, strain KPN 200327 (TEM-1, SHV-1, CTX-M-15, OXA-1), CLA @ 4 μg/ml+ ATB, read-out: MIC) | MIC ([1]; Klebsiella pneumoniae, strain KPN 270077 (TEM-1, SHV-1, CTX-M-15), CLA @ 4 μg/ml+ ATB, read-out: MIC) | MIC ATB in combination ([2]; EAE UFR213, AF1 @ 4 μg/mL) | MIC ATB in combination ([3]; CFR UFR250, AF1 @ 4 μg/mL) | MIC ([4]; Proteus mirabilis, strain PMI UFR127 (VEB-1), CLA @ 4 μg/ml+ ATB, read-out: MIC)
512 µg/mL: MIC ATB in combination ([1]; KPN UFR25) | MIC ATB in combination ([1]; KPN UFR220) | MIC ATB in combination ([1]; KPN UFR227O)
> 128 µg/mL: MIC ([2]; Klebsiella aerogenes) | MIC ([3]; Citrobacter freundii) | MIC ([4]; Proteus mirabilis)
64 µg/mL: MIC ATB in combination ([1]; KPN 190551) | MIC ATB in combination ([1]; KPN UFR22_O) | MIC ATB in combination ([1]; KPN UFR24) | MIC ATB in combination ([1]; KPN UFR77) | MIC ATB in combination ([1]; KPN UFR215) | MIC ATB in combination ([1]; KPN UFR217) | MIC ATB in combination ([2]; EAE UFR199, AF1 @ 4 μg/mL) | MIC ATB in combination ([2]; EAE UFR202, AF1 @ 4 μg/mL) | MIC ATB in combination ([3]; CFR UFR248, AF1 @ 4 μg/mL)
<=1 μg/mL: MIC ATB in combination ([2]; EAE UFR201, AF1 @ 4 μg/mL)
